According to ChEMBL document CHEMBL4483862, “Open-source discovery of chemical leads for next-generation chemoprotective antimalarials” (2018):

System: Plasmodium berghei
Experiment: Luciferase/luciferin-expressing antifolate-resistant parasites were used to infect a culture of HepG2 cells that were pre-incubated with compounds. Infected hepatocytes emit light due to the luciferase reaction. Assay results are presented as the percent inhibition of light emission compared to control. […]
Assay type: functional
Conditions: sporozoite; for IC50: read-out: LUCIFERASE INFECTION ASSAY - IC50; for IC90: read-out: LUCIFERASE INFECTION ASSAY - IC90

| Compound | IC50 | IC90 |
| --- | --- | --- |
| CSc1ccc(Cl)c(C(=O)OCC(=O)N2CCN(C(=O)c3ccco3)CC2)c1 | > 10 µM | > 10 µM |
| Cn1c(N)c(Sc2ccccc2[N+](=O)[O-])c(=O)n(C)c1=O | > 10 µM | > 10 µM |
| Cc1cnc(C(=O)OCC(=O)NCCc2ccccc2)cn1 | > 10 µM | > 10 µM |
| Cc1nn(-c2ccccc2)c(N2CCCC2)c1/C=N/Nc1ccc(S(N)(=O)=O)cc1[N+](=O)[O-] | 9.05 µM | > 10 µM |
| O=C1S/C(=C\c2ccccc2)C(=O)N1CCn1cnnn1 | > 10 µM | > 10 µM |
| C(=C(c1nc2ccccc2s1)c1nc2ccccc2s1)c1ccc(N2CCOCC2)cc1 | 0.749 µM | 3.63 µM |
| O=C(CSc1cccc[n+]1[O-])Nc1ccccc1OC(F)F | > 10 µM | > 10 µM |
| N#Cc1ccc(Cl)cc1/N=C/C(Br)=C/c1ccccc1 | > 10 µM | > 10 µM |
| Cc1ccc2nc(-c3ccc(NC(=O)COC(=O)c4ccccc4C(=O)c4ccccc4)cc3)sc2c1 | > 10 µM | > 10 µM |
| Cc1ccc(S(=O)(=O)NC(=O)c2c(C(=O)NS(=O)(=O)c3ccc(C)cc3)c(C)n(-c3ccc(N(C)C)cc3)c2C)cc1 | > 10 µM | > 10 µM |
| Cc1nn(-c2ccccc2)c2c1C(c1c[nH]c3ccccc13)N1C(=N2)C(N2CCN(c3ccc(F)cc3)CC2)=Nc2ccccc21 (stereo unspecified) | > 10 µM | > 10 µM |
| Cc1ccc(NC(=O)/C(=N/N)c2c(-c3ccccc3)nc3ccccn23)c(Br)c1 | > 10 µM | > 10 µM |
| CCCCNC(=S)NN=C(c1ccccc1)c1ccccc1 | > 10 µM | > 10 µM |
| O=C1COc2ccc(-c3cs/c(=N\c4ccc(OC(F)F)cc4)n3Cc3ccco3)cc2N1 | > 10 µM | > 10 µM |
| CCN(CC)S(=O)(=O)c1ccc(-c2ccc(C3NC(N)=Nc4nc5ccccc5n43)o2)cc1 (stereo unspecified) | > 10 µM | > 10 µM |
| Cc1ccc2c(c1)C1CN(C)CCC1N2C(=O)CCCOc1ccc(Cl)cc1Cl (stereo unspecified) | > 10 µM | > 10 µM |
| O=C(Nc1cccc(S(=O)(=O)NC2=NCCCCC2)c1)c1cncc(Br)c1 | > 10 µM | > 10 µM |
| CN1C(=O)NC(c2ccccc2C(F)(F)F)C(C(=O)c2cccs2)C1(O)C(F)(F)F (stereo unspecified) | > 10 µM | > 10 µM |
| CC(/N=c1\ccccn1C(=O)Nc1ccc(Cl)c(Cl)c1)c1ccco1 (stereo unspecified) | 6.62 µM | 9.14 µM |
| CCC/C(=N\n1c(-c2ccc(-c3ccccc3)cc2)cs/c1=N/c1c(C)n(C)n(-c2ccccc2)c1=O)c1ccccc1 | > 10 µM | > 10 µM |
| O=C(Nc1ccc(Cl)cc1C(F)(F)F)C(OC(=O)C(c1ccccc1)c1ccccc1)c1ccccc1 (stereo unspecified) | > 10 µM | > 10 µM |
| C/C(=N\c1cc(C(F)(F)F)ccc1Cl)Nc1ccc(C)cc1 | > 10 µM | > 10 µM |
| COCC/N=c1\scc(-c2ccc(OC(F)F)cc2)n1/N=C/c1ccccc1Cl | > 10 µM | > 10 µM |
| CC1CCCCC1NC(=O)/C(C#N)=C/c1ccc(OC(F)F)cc1OC(F)F (stereo unspecified) | > 10 µM | > 10 µM |
| O=C(CCN1CCN(C(c2ccccc2)c2ccccc2)CC1)NNC(=O)c1ccc(I)cc1 | > 10 µM | > 10 µM |
| C/N=c1\scc(-c2cc3ccccc3o2)n1/N=C/c1cccc(O)c1O | > 10 µM | > 10 µM |

| Compound | IC50 | IC90 |
| --- | --- | --- |
| COC(=O)c1cc(C(=O)OC)cc(-n2c(C)cc(C(O)(C(=O)OC)C(F)(F)F)c2C)c1 (stereo unspecified) | > 10 µM | > 10 µM |
| Cn1c[n+](C2=C(NS(=O)(=O)c3ccc([N+](=O)[O-])cc3)C(=O)c3ccccc3C2=O)c2ccccc21 | 2.53 µM | 5.03 µM |
| COc1ccccc1Oc1ccc(S(=O)(=O)N(c2cccnc2)S(=O)(=O)c2ccc(Oc3ccccc3OC)cc2)cc1 | > 10 µM | > 10 µM |
| CN1/C(=C\C(=O)COC(=O)c2cc3ccccc3cc2O)C(C)(C)c2ccccc21 | > 10 µM | > 10 µM |
| Cn1/c(=N/N=C2\C(=O)N(Cc3ccccc3)c3ccccc32)sc2ccccc21 | > 10 µM | > 10 µM |
| CCN(CC)S(=O)(=O)c1ccc(N/N=C2/C=CC(=O)c3ncccc32)cc1 | > 10 µM | > 10 µM |
| Cn1ncc(C(C#N)c2nc3ccccc3s2)c(Cl)c1=O (stereo unspecified) | > 10 µM | > 10 µM |
| COc1ccc(-c2nn(-c3ccccc3)cc2C(=O)Nc2cc(C(F)(F)F)ccc2N2CCCCC2)cc1 | > 10 µM | > 10 µM |
| CC(C)(C)C1CCc2nc3ccccc3c(C(=O)OCC(=O)c3ccc(Cl)s3)c2C1 (stereo unspecified) | > 10 µM | > 10 µM |
| Cc1ccc(N2C(=O)/C(=C\c3ccc4c(c3)OCO4)N=C2SCC(=O)NCC2CCCO2)cc1 (stereo unspecified) | > 10 µM | > 10 µM |
| CCN(CC)S(=O)(=O)c1cccc(-c2nnc(SCC(=O)N3CCc4ccccc43)n2-c2ccccc2)c1 | > 10 µM | > 10 µM |
| COc1ccccc1CNC(=O)c1cc(Cl)ccc1OC | > 10.8 µM | > 10.8 µM |
| O=C(/C=C/c1ccc([N+](=O)[O-])s1)Nc1ccc(F)cc1F | 8.88 µM | > 10 µM |
| Cc1c(-c2cccc(Cl)c2)nc2ccccc2c1C(=O)OCC(=O)C(C#N)=C1Nc2ccccc2N1 | > 10 µM | > 10 µM |
| CCOC(=O)c1cc(N/N=C(/C(=O)Nc2cccnc2)C(=O)c2ccccc2)cc(C(=O)OCC)c1 | > 10 µM | > 10 µM |
| O=C(N/N=C/C1=C(N2CCOCC2)C(=C\c2ccccc2)/CC1)c1ccco1 | 2.96 µM | 3.47 µM |
| COC(=O)c1cc2c(N)c(C(=O)c3cc(C#N)c(SC)nc3C)sc2nc1C | 5.83 µM | > 10 µM |
| O=C(NC(=S)NN(C(=S)NC(=O)c1ccccc1Br)c1nc2ccccc2[nH]1)c1ccccc1Br | > 10 µM | > 10 µM |
| CCn1c2ccccc2c2cc(/C=C(\C#N)c3nnc(N4CCOCC4)n3-c3ccccc3)ccc21 | > 10 µM | > 10 µM |
| CC(C(=O)OCC(=O)Nc1ccc(Cl)c2c1C(=O)c1ccccc1C2=O)N1C(=O)c2ccccc2C1=O (stereo unspecified) | > 10 µM | > 10 µM |
| CCOc1ccccc1N/C=C1/C(=O)N(Cc2ccc3c(c2)OCO3)C(=O)c2ccccc21 | > 10 µM | > 10 µM |
| CC1Cc2ccccc2N1C(=O)COC(=O)c1ccc([N+](=O)[O-])cc1 (stereo unspecified) | > 10 µM | > 10 µM |
| Cc1nn(-c2ccccc2)c2c1C(C(F)(F)F)(C(F)(F)F)OC(c1cccc(S(=O)(=O)N3CCCCC3)c1)=N2 | > 10 µM | > 10 µM |
| CC(=O)n1c(Nc2ccc(F)cc2)c(Sc2ccccc2[N+](=O)[O-])c2ccccc2c1=O | 5.95 µM | > 10 µM |
| CSCCC(C(=O)Oc1c(Cl)cc(Cl)c2ccc(C)nc12)N1C(=O)c2ccccc2C1=O (stereo unspecified) | > 10 µM | > 10 µM |
| CCN(c1ccccc1)S(=O)(=O)c1ccc(C(=O)NC2CCCc3ccccc32)cc1 (stereo unspecified) | > 10 µM | > 10 µM |

| Compound | IC50 | IC90 |
| --- | --- | --- |
| CCn1c(C)nc2cc(C(=O)NNC(=O)c3cc4c(C)nn(-c5cccc(C(F)(F)F)c5)c4s3)ccc21 | > 10 µM | > 10 µM |
| S=C(NCCc1ccc(Cl)cc1Cl)NC1CC2CCC1C2 (stereo unspecified) | > 10 µM | > 10 µM |
| C/C(=N\NC(=O)c1ccc(COc2c(Br)cc(C)cc2Br)cc1)c1ccc(O)cc1O | 1.12 µM | 1.28 µM |
| Cc1ccc(S(=O)(=O)Nc2ccc(C(=O)/C=C/c3ccc(C(C)(C)C)cc3)cc2)cc1 | > 10 µM | > 10 µM |
| S=C(NCc1ccccc1)N/N=C1/CCCCC1C1CCCCC1 (stereo unspecified) | > 10 µM | > 10 µM |
| Cc1cc(C=C2Sc3ccc4ccccc4c3N2C)cc(C)[n+]1Cc1cccnc1 | > 10 µM | > 10 µM |
| O=C(COC(=O)Cc1ccc(Cl)c(Cl)c1)Nc1ccc(OCc2ccccc2)cc1 | > 10 µM | > 10 µM |
| O=[N+]([O-])c1ccc(NN=C2CCSC2)c(S(=O)(=O)Nc2ccc(Cl)cc2)c1 | > 10 µM | > 10 µM |
| CCC(C)c1ccc(NC(=O)CN(Cc2ccccc2)S(=O)(=O)c2ccc(C)c(C)c2)cc1 (stereo unspecified) | > 10 µM | > 10 µM |
| CC1CCCC(NC(=O)CNc2cc(C(F)(F)F)ccc2Oc2ccc(Br)cc2)C1C (stereo unspecified) | > 10 µM | > 10 µM |
| FC(F)Sc1ccc(NC(=S)NC2CCCc3ccccc32)cc1 (stereo unspecified) | > 10 µM | > 10 µM |
| CCCCCC(/C=N/NC(=O)c1ccccc1O)=C\c1ccccc1 | > 10 µM | > 10 µM |
| CCN1C/C(=C/c2ccc(NC(C)=O)cc2)C(=O)/C(=C/c2ccc(NC(C)=O)cc2)C1 | > 10 µM | > 10 µM |
| O=C(Nc1nc(-c2cccs2)c(C(=O)C(F)(F)F)s1)c1ccc(S(=O)(=O)N2CCCCC2)cc1 | 9.17 µM | > 10 µM |
| Cc1nn2c(nc(Sc3nc4ccccc4o3)c3ccccc32)c1/C=N/NC(=O)c1cccc(S(=O)(=O)N2CCOCC2)c1 | > 10 µM | > 10 µM |
| Cc1cccn2c(=O)c(/C=N/O)c(Nc3ccc(SC(F)F)cc3)nc12 | > 10 µM | > 10 µM |
| COCC/N=c1\scc(-c2ccc(OC(F)F)cc2)n1/N=C/c1ccccc1F | > 10 µM | > 10 µM |
| C=C(C)C/N=c1\scc(-c2ccccc2F)n1/N=C1\CCCCc2ccccc21 | > 10 µM | > 10 µM |
| O=C1C=C/C(=N/N(Cc2ccccc2)c2ccccc2)O1 | > 10 µM | > 10 µM |
| C/C(CCc1ccc2c(c1)OCO2)=N\Nc1nc2ccccc2[nH]1 | > 10 µM | > 10 µM |
| CCCCCCC(/C=N/NC(=O)c1ccccc1O)=C\c1ccccc1 | > 10 µM | > 10 µM |
| Cc1cccc(C)c1NC(=O)CSc1nc(=O)c2c(C)c(-c3ccccc3)sc2[nH]1 | > 10 µM | > 10 µM |
| O=C(Nc1ccc(C(OC(=O)c2ccccc2)(C(F)(F)F)C(F)(F)F)cc1)c1ccccc1 | > 10 µM | > 10 µM |
| COc1cc(/C=C/C(=O)c2ccc(Cl)c([N+](=O)[O-])c2)ccc1OC(F)F | > 10 µM | > 10 µM |
| CCOC(=O)c1c(C)[nH]c(C(=O)CSc2nnc(C3COc4ccccc4O3)n2-c2ccccc2)c1C (stereo unspecified) | > 10 µM | > 10 µM |
| CC12CC3CC(C1)CC(c1ccc(O)cc1)(C3)C2 | > 10 µM | > 10 µM |
